The values that follow come from patent publication US9187458B2, “Cyanoquinoline derivatives” (Tianjin Hemay Bio-Tech Co., LTD., priority 2010, dated 2015).

One assay deals with Sk-Br-3 cells. In words: Sk-Br-3 Cell Growth Inhibition Test (SRB Assay). Format: cell-based. The following applies: Homo sapiens, 91 h incubation. The essentials:
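Sk-Br-3 cells seeded at 10000/well in DMEM with 10% FBS were incubated overnight, then exposed to compound for 91 h at 37° C, 5% CO2. TCA-fixed cells were SRB-stained and OD read at 570 nm. GI50, TGI and LC50 were derived from growth relative to time-zero, untreated and blank wells.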

The next assay relates to A549 cells. In words: A549 Cell Growth Inhibition Test (MTT Assay). The format is cell-based. The following applies: Homo sapiens, 72 h incubation. The essentials: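 Human lung cancer A549 cells, seeded at 2500 cells per well, were exposed to compound for 72 h at 37° C., 5% CO2. Viability by MTT (0.5 mg/ml, 3 h), DMSO-dissolved, OD at 490 nm; IC50 fitted from inhibition ratio relative to controls.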

Another assay concerns A431 cells. In words: A431 Cell Growth Inhibition Test (MTT Assay). The format is cell-based, human. The following applies: for IC50 / inhibition at 1 µM: Homo sapiens; for IC50: A-431, 68 h incubation; for inhibition at 1 µM: A-431, 68 h, read-out: Growth Inhibition Ratio (%). The essentials: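 Cells seeded at 2500/well in DMEM/F12 with 10% FBS, grown overnight, then exposed to compound for 68 h at 37 °C, 5% CO2. Viability by MTT (0.5 mg/ml, 4 h), DMSO-solubilised, OD 490 nm; IC50 is concentration giving 50% growth inhibition relative to controls.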

The next assay relates to LoVo cells. In words: LoVo Cell Growth Inhibition Test (MTT Assay). Format: cell-based. The following applies: Homo sapiens, 72 h incubation. How it is done: LoVo Cell Growth Inhibition Test (MTT Assay)
1. Cell strains: LoVo (human intestinal cancer cell strains);
1. A plate (10 cm) of cells in logarithmic growth phase normally cultured was collected;
2. The culture solution was sucked out. The plate was washed with 5 ml of PBS 1-2 times;
3. PBS was sucked out. 2 ml of 0.25% pancreatin was added to infiltrate the cells for 1 min;
4. The pancreatin was sucked out. The culture plate was placed in an incubator. Digestion was carried out for about 4 min at 37° C.;
5. 4 ml of complete culture solution was added in the culture plate to stop the digestion. The cells were carefully scoured with micropipette (1 ml) to give a uniform cell suspension. The suspension was implanted into a 96-well cell culture plate by 3000-4000 cells/100 μl per well. The culture plate was incubated overnight under 5% CO2 at 37° C. In day 2, 100 μl of culture solution comprising a compound was added into each well, and further incubated for 72 h under 5% CO2 at 37° C.
6. The culture solution was sucked out;
7. 100 μl of serum-free culture solution containing 0.5 mg/ml MTT was added in each well, and incubated for 4 h;
8. The culture solution was carefully sucked out;
9. 100 μl of DMSO was added in each well and vibrated to dissolve;
10. OD values were determined at 490 nM.
1. Calculation of Relative Inhibition Ratio The inhibition ratio of a compound on cell growth=(PC−n)/(PC−NC)×100%
IC50: Concentration of a compound where inhibition ratio was 50%. IC50 values were fitted with Origin7.5.

In the assay with Sk-Br-3 cells, `CC(C)(C)NC/C=C/C(=O)Nc1cc2c(Nc3ccc(OCc4ccccn4)c(Cl)c3)c(C#N)cnc2cc1O[C@H]1CCOC1` [Example 153, (S,E)-N-(4-(3-CHLORO-4-(PYRIDIN-2-YL-METHOXY)PHENYLAMINO)-3-CYANO-7-(TETRAHYDROFURAN-3-YL-OXY)QUINOLIN-6-YL)-4-(TERT-BUTYLAMINO)-BUT-2-ENAMIDE] came in with a GI50 of 6.8 nM. Also, the values for the IC50 with A549 cells, in the assay on A431 cells and in the assay with LoVo cells were 6400 nM, 53 nM and 5600 nM, respectively.

Consider `CN(C)C/C=C/C(=O)Nc1cc2c(Nc3ccc(OCc4ccccn4)c(Cl)c3)c(C#N)cnc2cc1O[C@@H]1CCOC1` [Example 139, (R,E)-N-(4-(3-CHLORO-4-(PYRIDIN-2-YL-METHOXY)PHENYLAMINO)-3-CYANO-7-(TETRAHYDROFURAN-3-YL-OXY)QUINOLIN-6-YL)-4-(DIMETHYLAMINO)-BUT-2-ENAMIDE], for which the GI50 in the assay on Sk-Br-3 cells amounted to 5.2 nM. In addition, the figures for the 50% inhibitory concentration (IC50) in the assay on A549 cells, with A431 cells and with LoVo cells were 600 nM, 93 nM and 2200 nM, respectively. Besides, the inhibition at 1 µM in the assay on A431 cells (compound 1 μM, 68 h incubation) amounted to 90%.

In the assay with Sk-Br-3 cells, `C#Cc1cccc(Nc2c(C#N)cnc3cc(O[C@H]4CCOC4)c(NC(=O)/C=C/CN(C)C)cc23)c1` [Example 140, (S,E)-N-(3-CYANO-4-(3-ETHYNYLPHENYLAMINO)-7-(TETRAHYDROFURAN-3-YL-OXY)QUINOLIN-6-YL)-4-(DIMETHYLAMINO)-BUT-2-ENAMIDE] gave a GI50 of 22 nM. For the same compound, the IC50 is 1600 nM in the assay on A549 cells, 26 nM in the assay with A431 cells and 8800 nM in the assay on LoVo cells. The inhibition at 1 µM in the assay on A431 cells (compound 1 μM, 68 h incubation) was 87%.

Regarding `CN(C)C/C=C/C(=O)Nc1cc2c(Nc3ccc(OCc4ccc(Cl)cc4)c(Cl)c3)c(C#N)cnc2cc1OC1CCOC1` (stereo not shown) [Example 16, (E)-N-(4-(4-(4-CHLOROBENZYLOXY)-3-CHLOROPHENYLAMINO)-3-CYANO-7-(TETRAHYDROFURAN-3-YL-OXY)QUINOLIN-6-YL)-4-(DIMETHYLAMINO)-BUT-2-ENAMIDE], the GI50 with Sk-Br-3 cells turned out to be 36 nM. In addition, the IC50 is 3400 nM in the assay on A549 cells, 358 nM with A431 cells and 1800 nM in the assay on LoVo cells.

Take `CN(C)C/C=C/C(=O)Nc1cc2c(Nc3ccc(F)c(Cl)c3)c(C#N)cnc2cc1OC1CCOC1` (stereo not shown) [Example 4, (E)-N-(4-(3-CHLORO-4-FLUOROPHENYLAMINO)-3-CYANO-7-(TETRAHYDROFURAN-3-YL-OXY)QUINOLIN-6-YL)-4-(DIMETHYLAMINO)-BUT-2-ENAMIDE]: the GI50 in the assay with Sk-Br-3 cells stood at 148 nM. Moreover, the IC50 came out at 1250 nM with A549 cells, 68 nM in the assay on A431 cells and 8000 nM in the assay on LoVo cells. The “Growth Inhibition Ratio (%)” value in the assay on A431 cells (compound 1 μM, 68 h incubation) is 80%.

Take `CN(C)C/C=C/C(=O)Nc1cc2c(Nc3cccc(Br)c3)c(C#N)cnc2cc1OC1CCOC1` (stereo not shown) [Example 7, (E)-N-(4-(3-BROMOPHENYLAMINO)-3-CYANO-7-(TETRAHYDROFURAN-3-YL-OXY)QUINOLIN-6-YL)-4-(DIMETHYLAMINO)-BUT-2-ENAMIDE]: the GI50 in the assay with Sk-Br-3 cells is 213 nM. The IC50 in the assay on A549 cells turned out to be 3000 nM; with A431 cells, 160 nM; in the assay with LoVo cells, 7000 nM.

Compound `CN(C)C/C=C/C(=O)Nc1cc2c(Nc3ccc(OCc4ccccn4)c(Cl)c3)c(C#N)cnc2cc1O[C@H]1CCOC1` [Example 138, (S,E)-N-(4-(3-CHLORO-4-(PYRIDIN-2-YL-METHOXY)PHENYLAMINO)-3-CYANO-7-(TETRAHYDROFURAN-3-YL-OXY)QUINOLIN-6-YL)-4-(DIMETHYLAMINO)-BUT-2-ENAMIDE] displayed a GI50 with Sk-Br-3 cells of 3.8 nM. Further, the IC50 in the assay on A549 cells worked out at 1500 nM; in the assay on A431 cells, 62 nM; with LoVo cells, 2100 nM. For the same compound, the inhibition at 1 µM with A431 cells (compound 1 μM, 68 h incubation) was determined as 89%.

As to `CCN(CC)C/C=C/C(=O)Nc1cc2c(Nc3ccc(OCc4ccccn4)c(Cl)c3)c(C#N)cnc2cc1O[C@H]1CCOC1` [Example 150, (S,E)-N-(4-(3-CHLORO-4-(PYRIDIN-2-YL-METHOXY)PHENYLAMINO)-3-CYANO-7-(TETRAHYDROFURAN-3-YL-OXY)QUINOLIN-6-YL)-4-(DIETHYLAMINO)-BUT-2-ENAMIDE], in the assay on Sk-Br-3 cells, it took 11 nM to inhibit growth by half (GI50). Moreover, the IC50 stood at 3800 nM in the assay on A549 cells, 27 nM in the assay on A431 cells and 2200 nM in the assay on LoVo cells. For the same compound, the inhibition at 1 µM in the assay with A431 cells (compound 1 μM, 68 h incubation) is 84%.

As usually defined, the GI50 is the concentration giving 50% growth inhibition. A higher GI50 goes with lower sensitivity of the cells. The term IC50 denotes the concentration that gives 50% inhibition. Lower therefore signals higher potency.
